Results: patent publication US20240034999A1, “IMPROVED REPROGRAMMING, MAINTENANCE AND PRESERVATION FOR INDUCED PLURIPOTENT STEM CELLS” (Fate Therapeutics, Inc., priority 2020, published 2024)

Test system: Human T cells transfected with reprogramming plasmids
Assay: T cell reprogramming efficiency, flow cytometry of iPSC surface markers
Type: cell-based
Conditions: VPA from around day 2-3 post transfection; three T cell donors; versus no VPA
Description: Flow Cytometry Analysis and Sorting Single cell dissociated reprogramming pools were resuspended in chilled staining buffer. Conjugated primary antibodies, including SSEA4-FITC, TRA181-Alexa Fluor-647 and CD30-PE (BD Biosciences), were added to the cell solution and incubated on ice for 15 min. All antibodies were used at 7-10 μL in 100 μL staining buffer per million cells. The resuspended dissociated single cells in staining buffer were spun down and resuspended in staining buffer now containing a ROCK inhibitor and maintained on ice for flow cytometry sorting. Flow cytometry sorting was performed on FACS Aria II (BD Biosciences). The sorted cells were directly ejected into 96-well plates at concentrations of 3 and 9 events per well. Each well was prefilled with FMM2. Upon completion of the sort, 96-well plates were incubated for colony formation and expansion. Seven to ten days post sort, the cells were passaged. Subsequent passages in FMM2 were done routinely upon 75-90% confluency. Flow cytometry analysis was performed on Guava EasyCyte 8 HT (Millipore) and analyzed using FCS Express 4 (De Novo Software). Human T cells from three different donors were transfected with the above reprogramming plasmids on day 0. […] The expression of iPSC surface markers (SSEA4, TRA-1-81, and CD30) was analyzed by flow cytometry.

CCCC(CCC)C(=O)O [VPA, valproic acid]
percentage of SSEA4+TRA-1-81+CD30+ iPSC cells in the population: significantly increased
